Key:
ASK1 [1] = biological target: T1, ASK1 (Homo sapiens (Human), UniProt Q99683); experiment: Scintillation assay for inhibitory effect against ASK1 (Example B; myelin basic protein substrate, [γ-32P]ATP); type: biochemical; conditions: 2.5 μM ATP solution, read-out: Enzyme Activity B IC50
Source text: (§1) The inhibitory effect of the compound of the invention on ASK1 may be evaluated by evaluating the phosphorylating activity of the enzyme on a known substrate with or without the presence of the test compound. Example B provides such an assay where myelin basic protein (Wako) is used as substrate and detection is by scintillation counting. It should be understood other substrates and detection mechanism may be used. A commercially available a kit, Cisbio's HTRF® KinEASE™ STK kit, has shown to be useful for evaluating ASK1 activity. The assay uses an anti-phosphoseric specific, Eu^3+-Cryptate labeled antibody to mark the phosphorylated product of ASK1 on a biotinylated kinase substrate, and detection is by time resolved fluorescence using XL665 labeled streptavidin. The fluorescence intensity is proportional to the amount of product formation. Example C provides the assay protocol.
Cloning of cDNA encoding human ASK1 was conducted by PCR using primers, 5′-[…] […]-3′ (SEQ ID NO: 1) and 5′-AAAGCGGCCGCTCAA […]-3′ (SEQ ID NO: 2), from human heart cDNA library (Becton, Dickinson and Company). The PCR product was subjected to agarose gel (1%) electrophoresis, a 2.2 kb DNA fragment containing an ASK1 gene was recovered from the gel, and then digested with restriction enzymes, NotI and SalI, and inserted into a plasmid pFASTBAC1 (Invitrogen) to prepare a plasmid pFB-ASK1. The insert was verified by sequencing. Recombinant baculovirus was prepared according to the procedure of the Bac-to-Bac baculovirus expression system (Invitrogen).
Sf-21 cells were seeded to achieve 1×10^6 cells/mL in 100 mL of Sf-900 II SFM medium (Invitrogen) which contains 10% fetal calf serum and then cultured at 27° C. for 24 hrs. To express ASK1 in cells, 0.15 mL of the recombinant baculovirus virus stock was added to cells, and the then cultured for 60 hrs. The cells were separated from the culture solution by centrifugation at 3000 rpm for 10 min and washed once with PBS. The cells were suspended in 10 mL of lysis buffer (25 mM HEPES (pH 7.5), 1% Triton X, 130 mM NaCl, 1 mM EDTA, 1 mM DTT, 25 mM (3-glycerophosphate, Protease inhibitor complete (Roche), 1 mM sodium orthovanadate) and ruptured by four times of treatment with a homogenizer (POLYTRON) at 20000 rpm for 30 seconds. Active ASK1 protein was purified from a supernatant obtained by centrifugal separation at 40000 rpm for 45 min using anti-FLAG M2 Affinity Gel (Sigma).
Scintillation Assay for Measuring the Inhibitory Effect of Exemplified Compounds of the Invention Against ASK1
The test compounds (2.5 μL) dissolved in DMSO were added to wells containing 37.5 μL of the reaction solution (25 mM HEPES (pH 7.5), 10 mM magnesium acetate, 1 mM DTT) including 30 ng of active ASK1 protein and 1 μg of myelin basic protein (Wako), and incubated at room temperature for 5 min. To start the reaction, 10 μL of ATP solution (2.5 μM ATP, 0.1 μCi [γ-^32P]ATP) was added to wells. After incubating at room temperature for 30 min, the reaction was terminated by adding 50 μL of 20% TCA solution. The reaction solution was incubated at 4° C. for 30 min and an acid-insoluble fraction was transferred onto a GF/C filter (Packard) with Cell Harvester (Packard), and washed with 250 mM phosphoric acid. After drying at 45° C. for 60 min., 40 μL of Microscint 0 (Packard) was added and the radioactivity was measured with TopCount (Packard). The concentrations (IC50 value) of the test compounds necessary for 50% inhibition of kinase activity were calculated by PRISM 3.0 (Graphpad Software).
Target sequence in this assay (Q99683 650-1374): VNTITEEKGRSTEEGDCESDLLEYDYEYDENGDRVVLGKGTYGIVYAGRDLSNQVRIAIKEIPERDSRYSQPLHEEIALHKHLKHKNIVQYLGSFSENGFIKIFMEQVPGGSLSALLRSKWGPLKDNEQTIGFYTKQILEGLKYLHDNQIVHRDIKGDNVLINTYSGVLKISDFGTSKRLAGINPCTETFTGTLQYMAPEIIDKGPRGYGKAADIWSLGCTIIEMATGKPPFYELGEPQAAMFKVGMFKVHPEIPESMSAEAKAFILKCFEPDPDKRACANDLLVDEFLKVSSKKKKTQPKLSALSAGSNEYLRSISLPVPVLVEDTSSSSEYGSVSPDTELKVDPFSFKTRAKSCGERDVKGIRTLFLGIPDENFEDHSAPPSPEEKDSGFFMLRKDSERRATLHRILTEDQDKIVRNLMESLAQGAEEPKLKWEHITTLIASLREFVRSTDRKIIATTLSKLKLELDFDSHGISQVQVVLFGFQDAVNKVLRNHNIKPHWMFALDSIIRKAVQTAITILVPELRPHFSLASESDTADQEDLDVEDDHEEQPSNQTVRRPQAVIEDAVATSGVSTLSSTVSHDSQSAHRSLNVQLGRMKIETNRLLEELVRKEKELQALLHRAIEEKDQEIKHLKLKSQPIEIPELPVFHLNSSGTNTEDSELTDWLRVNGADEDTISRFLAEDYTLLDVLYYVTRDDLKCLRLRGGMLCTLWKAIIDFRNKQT

ASK1 [2] = biological target: T1, ASK1; experiment: Homogeneous Time-Resolved Fluorescence (HTRF) assay for inhibitory effect against ASK1 (Example C; KinEASE STK S3 kit); type: biochemical; conditions: 25 nM ASK1, 100 μM ATP, read-out: Enzyme Activity C IC50
Source text: as §1
Target sequence in this assay (Q99683 649-946): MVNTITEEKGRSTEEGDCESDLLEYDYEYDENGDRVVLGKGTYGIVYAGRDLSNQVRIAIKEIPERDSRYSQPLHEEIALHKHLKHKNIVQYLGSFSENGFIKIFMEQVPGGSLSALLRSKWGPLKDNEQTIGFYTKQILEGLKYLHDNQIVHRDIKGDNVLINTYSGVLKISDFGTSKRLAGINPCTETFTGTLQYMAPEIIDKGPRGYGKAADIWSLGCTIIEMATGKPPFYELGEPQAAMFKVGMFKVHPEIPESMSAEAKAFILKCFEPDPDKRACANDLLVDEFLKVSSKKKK
Homogeneous Time-Resolved Fluorescence (HTRF) Assay for Measuring the Inhibitory Effect of Exemplified Compounds of the Invention Against ASK1
Recombinant human ASK1 is purchased from Millipore (Cat #14-606). The enzymatic assay of ASK1 is set up by using HTRF® KinEASE™ STK S3 kit, the Universal Assay for Serine/Threonine Kinases kit from CisBio.
The inhibitory properties of compounds to ASK1 may be determined using a white 384-well-plate format under the following reaction conditions: 25 nM ASK1, 1 μM CisBio STK S3-biotion peptide, 100 μM ATP, and 1%-2% DMSO in kinase assay buffer of 50 mM HEPES, pH 7.3, 10 mM NaCl, 10 mM MgCl2, 0.01% Brij35, 0.2 mM EDTA, and 1 mM DTT. Reaction product is determined quantitatively by HTRF after the addition of detection reagent SA-XL665 and STK-antibody-cryptate.
The assay reaction may be initiated as follows: 2 μl of the mixture of 3 μM CisBio STK S3-biotion peptide and 300 μM ATP with 2 μl of test compound (2 fold serial dilutions for 11 data points for each inhibitor) containing 3%-6% DMSO are added to each well of the plate, followed by the addition of 2 μL of 75 nM ASK1 to initiate the reaction (final enzyme concentration was 25 nM for ASK1). The reaction mixture may then be incubated at room temperature for 1 hour, and quenched and developed by the addition of 6 μL of 100-fold diluted STK-antibody-Cryptate and 250 nM SA-XL665 in Cisbio HTRF detection buffer (50 mM HEPES, pH7.0, 0.1% BSA, 0.8 M KF, and 20 mM EDTA). The fluorescence intensity is measured at 620 nm (Cryptate) and 665 nm (XL665) after a 1-2 hour incubation at room temperature. A ratio is calculated (665/620) for each well and is fitted to the standard IC50 curve to determine inhibition constants (IC50).

SMILES	IC50 (ASK1 [1])	IC50 (ASK1 [2])	melting point
CCn1cc(Br)c2cnc(NC(=O)c3ccc([C@@](C)(O)CO)cc3)cc21 [Compound 20, (R)—N-(3-bromo-1-ethyl-1H-pyrrolo[3,2-c]pyridin-6-yl)-4-(1,2-dihydroxypropan-2-yl)benzamide]	2 nM	10 nM	
CCn1cc(C)c2cnc(NC(=O)c3ccc([C@@](C)(O)CO)cc3)cc21 [Compound 18, (R)-4-(1,2-dihydroxypropan-2-yl)-N-(1-ethyl-3-methyl-1H-pyrrolo[3,2-c]pyridin-6-yl)benzamide]	14 nM	17 nM	
CCn1ccc2cnc(NC(=O)c3ccc([C@@](C)(O)CO)c(C)c3)cc21 [Compound 27, (R)-4-(1,2-dihydroxypropan-2-yl)-N-(1-ethyl-1H-pyrrolo[3,2-c]pyridin-6-yl)-3-methylbenzamide]		528 nM	
Cc1cn(C)c2cc(NC(=O)c3ccc(C(C)(C)O)cc3)ncc12 [Compound 19, N-(1,3-dimethyl-1H-pyrrolo[3,2-c]pyridin-6-yl)-4-(2-hydroxypropan-2-yl)benzamide]	19 nM	29 nM	
CCn1cc(Br)c2cnc(NC(=O)c3ccc(C(C)(C)O)cc3)cc21 [Compound 11, N-(3-bromo-1-ethyl-1H-pyrrolo[3,2-c]pyridin-6-yl)-4-(2-hydroxypropan-2-yl)benzamide]	3 nM	8 nM	
Cn1cc(Cl)c2cnc(NC(=O)c3ccc(C(C)(C)O)cc3)cc21 [Compound 24, N-(3-chloro-1-methyl-1H-pyrrolo[3,2-c]pyridin-6-yl)-4-(2-hydroxypropan-2-yl)benzamide]	11 nM	18 nM	
Cn1c(Cl)c(Cl)c2cnc(NC(=O)c3ccc([C@@](C)(O)CO)cc3)cc21 [Compound 32, (R)—N-(2,3-dichloro-1-methyl-1H-pyrrolo[3,2-c]pyridin-6-yl)-4-(1,2-dihydroxypropan-2-yl)benzamide]		122 nM	
Cn1cc(Cl)c2cnc(NC(=O)c3ccc([C@@](C)(O)CO)cc3)cc21 [Compound 31, (R)—N-(3-chloro-1-methyl-1H-pyrrolo[3,2-c]pyridin-6-yl)-4-(1,2-dihydroxypropan-2-yl)benzamide]		19 nM	210 to 212 °C
Cn1c(Cl)c(Cl)c2cnc(NC(=O)c3ccc([C@](C)(O)CO)cc3)cc21 [Compound 30, (S)—N-(2,3-dichloro-1-methyl-1H-pyrrolo[3,2-c]pyridin-6-yl)-4-(1,2-dihydroxypropan-2-yl)benzamide]			205 to 208 °C
Cn1cc(Br)c2cnc(NC(=O)c3ccc(C(C)(C)O)cc3)cc21 [Compound 15, N-(3-bromo-1-methyl-1H-pyrrolo[3,2-c]pyridin-6-yl)-4-(2-hydroxypropan-2-yl)benzamide]	5 nM	10 nM	
C[C@](O)(CO)c1ccc(C(=O)Nc2cc3c(ccn3C3CC3)cn2)cc1 [Compound 17, (R)—N-(1-cyclopropyl-1H-pyrrolo[3,2-c]pyridin-6-yl)-4-(1,2-dihydroxypropan-2-yl)benzamide]	69 nM	214 nM	
CC(C)(O)c1ccc(C(=O)Nc2cc3c(cn2)c(Br)cn3CC2CC2)cc1 [Compound 10, N-(3-bromo-1-(cyclopropylmethyl)-1H-pyrrolo[3,2-c]pyridin-6-yl)-4-(2-hydroxypropan-2-yl)benzamide]	3 nM	62 nM	
Cn1cc(Br)c2cnc(NC(=O)c3ccc([C@@](C)(O)CO)cc3)cc21 [Compound 16, (R)—N-(3-bromo-1-methyl-1H-pyrrolo[3,2-c]pyridin-6-yl)-4-(1,2-dihydroxypropan-2-yl)benzamide]	7 nM	20 nM	
CCn1cc(C)c2cnc(NC(=O)c3ccc(C(C)(C)O)cc3)cc21 [Compound 12, N-(1-ethyl-3-methyl-1H-pyrrolo[3,2-c]pyridin-6-yl)-4-(2-hydroxypropan-2-yl)benzamide]	7 nM	20 nM	
C[C@](O)(CO)c1ccc(C(=O)Nc2cc3c(cn2)c(Cl)cn3C2CC2)cc1 [Compound 23, (R)—N-(3-chloro-1-cyclopropyl-1H-pyrrolo[3,2-c]pyridin-6-yl)-4-(1,2-dihydroxypropan-2-yl)benzamide]	4 nM	6 nM	
CC(C)(O)c1ccc(C(=O)Nc2cc3c(ccn3CS(C)(=O)=O)cn2)cc1 [Compound 21, 4-(2-hydroxypropan-2-yl)-N-(1-(methylsulfonylmethyl)-1H-pyrrolo[3,2-c]pyridin-6-yl)benzamide]		12400 nM	
Cn1c(Cl)c(Cl)c2cnc(NC(=O)c3ccc(C(C)(C)O)cc3)cc21 [Compound 25, N-(2,3-dichloro-1-methyl-1H-pyrrolo[3,2-c]pyridin-6-yl)-4-(2-hydroxypropan-2-yl)benzamide]	60 nM	146 nM	
CCn1cc(Cl)c2cnc(NC(=O)c3ccc([C@@](C)(O)CO)c(C)c3)cc21 [Compound 33, (R)—N-(3-chloro-1-ethyl-1H-pyrrolo[3,2-c]pyridin-6-yl)-4-(1,2-dihydroxypropan-2-yl)-3-methylbenzamide]		41 nM	
CC(C)(CO)c1ccc(C(=O)Nc2cc3c(cn2)c(Cl)cn3C2CC2)cc1 [Compound 28, N-(3-chloro-1-cyclopropyl-1H-pyrrolo[3,2-c]pyridin-6-yl)-4-(1-hydroxy-2-methylpropan-2-yl)benzamide]		16 nM	
C[C@](O)(CO)c1ccc(C(=O)Nc2cc3c(cn2)c(Br)cn3C2CC2)cc1 [Compound 22, (R)—N-(3-bromo-1-cyclopropyl-1H-pyrrolo[3,2-c]pyridin-6-yl)-4-(1,2-dihydroxypropan-2-yl)benzamide]	2 nM	7 nM	
CCn1ccc2cnc(NC(=O)c3ccc([C@@](C)(O)CO)cc3)cc21 [Compound 13, (R)-4-(1,2-dihydroxypropan-2-yl)-N-(1-ethyl-1H-pyrrolo[3,2-c]pyridin-6-yl)benzamide]	55 nM	64 nM	
CC(C)(O)c1ccc(C(=O)Nc2cc3c(ccn3CC3CC3)cn2)cc1 [Compound 9, N-(1-(cyclopropylmethyl)-1H-pyrrolo[3,2-c]pyridin-6-yl)-4-(2-hydroxypropan-2-yl)benzamide]	81 nM	237 nM	

Reference: patent US8802695B2, “Apoptosis signal-regulating kinase 1 inhibitors” (Takeda Pharmaceutical Company Limited, priority 2010, dated 2014)
